Molecular target: T1, gastrin (CCK2) receptors (Rattus norvegicus, UniProt P30553)
T1 construct: The stomach was excised and flushed with ca. 1 ml of unbuffered physiological saline solution; from tissue; host or cells: isolated, lumen-perfused stomach of immature rats (33-50 g, ca. 21 days old)
T1 sequence (P30553 1-452): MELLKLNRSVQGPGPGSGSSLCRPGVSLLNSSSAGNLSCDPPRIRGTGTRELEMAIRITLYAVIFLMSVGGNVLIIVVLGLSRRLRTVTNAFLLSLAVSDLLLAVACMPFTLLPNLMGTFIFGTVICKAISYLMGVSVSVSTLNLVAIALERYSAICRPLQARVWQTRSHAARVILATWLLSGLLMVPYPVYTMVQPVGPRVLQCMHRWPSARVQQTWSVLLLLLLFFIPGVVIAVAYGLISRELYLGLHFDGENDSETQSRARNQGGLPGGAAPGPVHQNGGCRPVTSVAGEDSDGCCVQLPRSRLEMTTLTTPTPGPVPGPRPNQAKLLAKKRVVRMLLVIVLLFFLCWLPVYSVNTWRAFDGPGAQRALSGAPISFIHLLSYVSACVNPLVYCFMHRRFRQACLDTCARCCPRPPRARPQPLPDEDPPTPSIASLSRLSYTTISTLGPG
Assay: immature rat stomach assay, gastrin (CCK2) antagonist activity against pentagastrin-stimulated acid secretion
Format: cell-based
Conditions: isolated immature rat stomach, pentagastrin dose-response curves, 60 min after drug addition; for Kb: read-out: Rat Stomach pKB (converted)
Experimental: The compounds of the examples were tested for gastrin (CCK2) antagonist activity in an immature rat stomach assay. The procedure was as follows:
The oesophagus of immature rats (33-50 g, ca. 21 days old) was ligated at the level of the cardiac sphincter and the duodenal sphincter was cannulated. The stomach was excised and flushed with ca. 1 ml of unbuffered physiological saline solution. The fundus was punctured and cannulated. A further 4-5 ml of unbuffered solution was flushed through the stomach to ensure the preparation was not leaking. The stomach was lowered into a jacketed organ bath containing 40 ml of buffered solution containing 3×10^−8 M 5-methylfurmethide, maintained at 37° and gassed vigorously with 95% O2/5% CO2. The stomach was continuously perfused at a rate of 1 ml min^−1 with unbuffered solution gassed with 100% O2 with the perfusate passing over an internally referenced pH-electrode fixed 12 cm above the stomach.
After 120 min of stabilisation the drugs were added directly to the serosal solution in the organ bath and after a further 60 min cumulative pentagastrin dose-response curves were started. Changes in acid secretion were monitored and the curves analysed according to Black et al., Br. J. Pharmacol., 1985, 86, 581.

Kb	Molecule	Rat Stomach pKB
–	3-{[3-(Adamantan-1-yloxymethyl)-3-phenyl-1-o-tolyl-1H-pyrazole-4-carbonyl]-amino}-benzoic acid [Example 2]	5.66 ± 0.24
0.0191 µM	Cc1ccccc1-n1nc(COC23CC4CC(CC(C4)C2)C3)c(C(=O)Nc2cccc(C(=O)O)c2)c1O [Example 3, 3-{[3-(Adamantan-1-yloxymethyl)-5-hydroxy-1-o-tolyl-1H-pyrazole-4-carbonyl]-amino}-benzoic acid]	–
0.0309 µM	O=C(O)c1cccc(NC(=O)c2c(COC34CC5CC(CC(C5)C3)C4)nn(C3CCCCC3)c2O)c1 [Example 4, 3-{[3-(Adamantan-1-yloxymethyl)-1-cyclohexyl-5-hydroxyl-1H-pyrazole-4-carbonyl]-amino}-benzoic acid]	–
0.17 µM	COc1c(C(=O)Nc2cccc(C(=O)O)c2)c(COC23CC4CC(CC(C4)C2)C3)nn1C1CCCCC1 [Example 5, 3-{[3-(Adamantan-1-yloxymethyl)-1-cyclohexyl-5-methoxy-1H-pyrazole-4-carbonyl]-amino}-benzoic acid]	–
0.269 µM	Cn1c(COC23CC4CC(CC(C4)C2)C3)c(C(=O)Nc2cccc(C(=O)O)c2)c(=O)n1C1CCCCC1 [Example 6, 3-{[5-(Adamantan-1-yloxymethyl)-2-cyclohexyl-1-methyl-3-oxo-2,3-dihydro-1H-pyrazole-4-carbonyl]-amino}-benzoic acid]	–

From patent US6956053B2, “Pyrazole derivatives and their use as gastrin and cholecystokin receptor ligands” (The James Black Foundation Limited, priority 2000, dated 2005)
